Legend:
Topoisomerase I = details: Wani et al. 1987; Hsiang et al. 1989; cited from earlier work
[1] = Slichenmyer et al. 1993; cited from earlier work
L1210 murine leukemia = assay: Method (b): antitumor (antileukemic) activity, L1210 murine leukemia implanted ip into CD2F1 mice, median survival time; assay type: in vivo; details: 24 h after tumor cells implant (day 1)
Procedure: Method (b): Evaluation of Antitumor Activity
L1210 murine leukemia was maintained in DBA2 mice by weekly ip transplants of 10^5 cells/mouse. For assaying the antileukemic activity, […] were implanted ip into CD2F1 mice; graded doses of the compounds under evaluation were administered ip 24 h after tumor cells implant on day 1 controls receiving vehicle alone.
The activity of the drugs was determined evaluating the median survival time (MST) of each group of mice.
The obtained results, expressed as % T/C, are reported on Table 3 below.

[2] = tested on: L1210 murine leukemia cells; assay: Method (a): cytotoxic activity on L1210 murine leukemia cells, 48 h exposure, Coulter Counter; assay type: cell-based; details: Mus musculus, 48 h at 37° C., mean of 3 different experiments, read-out: IC50 (dose causing 50% inhibition of cell growth relative to untreated controls)
Procedure: Method (a): Evaluation of Cytotoxic Activity
L1210 murine leukemia cells were grown in vitro as a stationary suspension in RPMI 1640 medium supplemented with 10% fetal calf serum, 2 mM L-glutamine, 10 μM B-mercaptoethanol, 100 UI/ml penicillin and 100 μg streptomycin. For assaying the cytotoxic activity, exponentialily growing cells were seeded at the concentration of 1×10^5 cells/ml and exposed to graded doses of the compounds under evaluation for 48 h at 37° C. in an humidified atmosphere of 5% CO2. The number of surviving cells was determined with a Coulter Counter; results are expressed as IC50 (dose causing 50% inhibition of cell growth in treated cultures relative to untreated controls after 48 h treatment).
In this assay, 9-(iminomethyl-amino)-camptothecin (internal code FCE 28536) and 9-(dimethylamino-methyleneamino)-camptothecin (internal code FCE 29006) were tested and the obtained results, which represent the mean of 3 different experiments, are reported on Table 2 below.

Structure (SMILES)	antitumor activity by the inhibition of Topoisomerase I (Topoisomerase I)	solubility in aqueous solutions [1]	% T/C (MST treated mice/MST control mice × 100) (L1210 murine leukemia; 5 mg/kg ip)	% T/C (MST treated mice/MST control mice × 100) (L1210 murine leukemia; 10 mg/kg ip) [%]	IC50 [2] [nM]	% T/C (MST treated mice/MST control mice × 100) (L1210 murine leukemia; 15 mg/kg ip) [%]
CC[C@@]1(O)C(=O)OCc2c1cc1n(c2=O)Cc2cc3c(N)cccc3nc2-1 [9-amino camptothecin]	potent antitumor activity by the inhibition of Topoisomerase I	low solubility in aqueous solutions				
CC[C@@]1(O)C(=O)OCc2c1cc1n(c2=O)Cc2cc3ccccc3nc2-1 [Camptothecin, camptothecin]	potent antitumor activity by the inhibition of Topoisomerase I	low solubility in aqueous solutions				
CC[C@@]1(O)C(=O)OCc2c1cc1n(c2=O)Cc2cc3c(NC=N)cccc3nc2-1 [FCE 28536, 9-(iminomethyl-amino)-camptothecin]			150-163%	188	82	
CC[C@@]1(O)C(=O)OCc2c1cc1n(c2=O)Cc2cc3c(N=CN(C)C)cccc3nc2-1 [FCE 29006, 9-(dimethylamino-methyleneamino)-camptothecin]			150%	163	120	175

Source: patent US5602141A, “Camptothecin derivatives and process for their preparation” (Pharmacia & Upjohn S.P.A., priority 1994, dated 1997)
